Test results as given in ChEMBL document CHEMBL1201862, “PubChem BioAssay data set” (2004).
Calls of active or inactive are those of the source.

What was measured:
[1] = molecular target: Potassium channel subfamily K member 3 (Homo sapiens, UniProt O14649); test: TASK1 (KCNK3) potassium channel inhibitors, SAR follow-up, CHO cells, FluxOR thallium flux (AID 652212); type: functional
[2] = MITF Orthogonal Assay: SK-MEL-5 CTG Assay Measured in Cell-Based System Using Plate Reader - 2084-02_Inhibitor_Dose_DryPowder_Activity_Set7.; type: functional
[3] = MITF: Counter assay: A375 proliferation Measured in Cell-Based System Using Plate Reader - 2084-03_Inhibitor_Dose_DryPowder_Activity_Set8.; type: functional; details: A-375
[4] = TRPM1 promoter luciferase reporter signal decrease, dose response, MITF inhibitor project, cell-based, SK-MEL-5, dry powder, set 8 (AID 624430); type: functional
[5] = HEK293T cytotoxicity, dose response, cytotoxicity control for miR-122 modulator project, cell-based, activator set, cherry-pick (AID 720690); type: functional;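 further: HEK293T human cells scored for general mammalian cytotoxicity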
H4 = test: Luminescence Cell-Based Dose Response HTS to Identify Activators of 5'UTR Stem-Loop Driven Prion Protein mRNA Translation in H4 Neuroglioblastoma Cells. [Related pubchem assays: 1829 (Project Summary), 1814 (Primary HTS)]; type: functional; details: Homo sapiens
[6] = Luminescence Cell-Based Dose Response HTS to Identify Activators of Luciferase Translation or Activity in H4 […] Cells. [Related pubchem assays: 1829 (Project Summary), 1814 (Primary HTS)]; type: functional
Cytochrome P450 3A4 = Cytochrome P450 3A4 (Homo sapiens, UniProt P08684);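 further: CYP3A4 tested as one member of a cytochrome P450 panel screen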
[7] = HEK293T cytotoxicity, dose response, cytotoxicity control for miR-122 modulator project, cell-based, inhibitor set, cherry-pick, set 2 (AID 720697); type: functional
[8] = Luminescence Cell-Based Dose Confirmation HTS to Identify Activators of 5'UTR Stem-Loop Driven Alpha-Synuclein mRNA Translation in H4 Neuroglioblastoma Cells. [Related pubchem assays: 1829 (Project Summary), 1814 (Primary HTS)]; type: functional
[9] = Luminescence Cell-Based Dose Response to Identify Activators of Luciferase Translation or Activity in H4-C Neuroglioblastoma Cells. [Related pubchem assays: 1829 (Project Summary), 1814 (Primary HTS)]; type: functional
[10] = Luminescence Cell-Based Dose Confirmation to Identify Activators of 5'UTR Stem-Loop Driven Alpha-Synuclein mRNA Translation in H4 Neuroglioblastoma Cells. [Related pubchem assays: 1829 (Project Summary), 1814 (Primary HTS)]; type: functional
[11] = miR-122 activators in hepatoma reporter cells, dose response, cell-based, Huh7 psiCHECK-miR122, Renilla luciferase, cherry-picked (AID 651956); type: functional;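 further: huh7 hepatoma cells stably carrying a psiCHECK-2 miR-122 sensor plasmid; renilla luciferase signal reporting endogenous miR-122 activity after 48 h compound exposure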
[12] = Luminescence Cell-Based Dose Response to Identify Activators of 5'UTR Stem-Loop Driven Prion Protein mRNA Translation in H4-C Neuroglioblastoma Cells. [Related pubchem assays: 1829 (Project Summary), 1814 (Primary HTS)]; type: functional
[13] = Fluorescence-based cell-based high throughput dose response assay for inhibitors of the interaction of nucleotide-binding oligomerization domain containing 2 (NOD2) and the receptor-interacting serine-threonine kinase 2 (RIPK2).; type: functional; details: Homo sapiens
[14] = inhibitors of control Renilla luciferase reporter, dose response, counter-screen for Shn3 3'UTR targeting project, Clone20-Shn3RL cells, dual-Glo, cherry-pick, set 2 (AID 720724); type: functional, cell-based; details: Dual-Go Shn3RL
[15] = molecular target: T1, Replicative DNA helicase DnaB (Mycobacterium tuberculosis, UniProt P9WMR3); test: DnaB intein splicing inhibitors, dose response, biochemical, cell-free fluorescence (AID 449749); type: functional
T1 sequence (P9WMR3 whole entry): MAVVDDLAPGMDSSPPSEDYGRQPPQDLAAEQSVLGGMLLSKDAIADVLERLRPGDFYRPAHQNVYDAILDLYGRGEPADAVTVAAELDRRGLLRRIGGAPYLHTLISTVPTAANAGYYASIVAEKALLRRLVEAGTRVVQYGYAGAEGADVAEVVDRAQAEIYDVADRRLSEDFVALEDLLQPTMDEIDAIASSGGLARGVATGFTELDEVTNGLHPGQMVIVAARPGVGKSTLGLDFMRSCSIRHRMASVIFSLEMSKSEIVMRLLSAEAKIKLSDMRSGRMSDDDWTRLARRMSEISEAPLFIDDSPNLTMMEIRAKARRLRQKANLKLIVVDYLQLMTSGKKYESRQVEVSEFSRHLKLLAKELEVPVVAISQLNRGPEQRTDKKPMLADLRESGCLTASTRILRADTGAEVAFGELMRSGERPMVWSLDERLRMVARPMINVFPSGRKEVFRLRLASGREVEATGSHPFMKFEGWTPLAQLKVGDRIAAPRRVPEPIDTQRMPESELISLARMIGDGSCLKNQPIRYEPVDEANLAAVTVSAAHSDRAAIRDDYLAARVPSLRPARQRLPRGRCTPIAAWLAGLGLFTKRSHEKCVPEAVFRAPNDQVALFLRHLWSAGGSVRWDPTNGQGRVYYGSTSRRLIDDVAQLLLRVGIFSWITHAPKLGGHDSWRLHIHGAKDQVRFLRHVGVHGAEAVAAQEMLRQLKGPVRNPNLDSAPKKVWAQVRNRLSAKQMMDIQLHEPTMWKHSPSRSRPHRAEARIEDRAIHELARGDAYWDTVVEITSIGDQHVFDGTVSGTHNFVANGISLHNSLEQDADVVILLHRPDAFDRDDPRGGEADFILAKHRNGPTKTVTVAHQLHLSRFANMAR

[16] = HepG2 cell cytotoxicity, dose response, cytotoxicity control for Shn3 inhibitor project, CellTiter-Glo, cherry-picked (AID 624134); type: functional, cell-based
[17] = Luminescence Cell-Based Dose Retest to Confirm Inhibitors of Cancer Stem Cells. [Related pubchem assays (depositor defined):AID2717, AID2721]; type: functional; details: Homo sapiens
[18] = reduction of Shn3 3'UTR firefly luciferase signal, dose response, Schnurri-3 inhibitor project, cell-based, Clone20 osteoblasts, cherry-pick, set 2 (AID 720490); type: functional;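 further: actives lower the luminescence signal as inhibitors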
[19] = Shn3 3'UTR reporter inhibitors, dose response, cell-based, Clone20 osteoblasts, firefly luciferase, cherry-picked (AID 624132); type: functional;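 further: firefly luciferase luminescence from reporter carrying the Shn3 3'UTR in osteoblasts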
[20] = inhibitors of PGC1a acetylation in cells, dose response, cell-based, cherry-picked samples (AID 720514); type: functional;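 further: potency may reflect raised or lowered acetylation signal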
Protein RecA = molecular target: T2, Protein RecA (Mycobacterium tuberculosis, UniProt P9WHJ3); test: Fluorescence Cell-Free Homogeneous Dose Retest to Identify Inhibitors of RecA-Intein Splicing Activity. [Related pubchem assays (depositor defined):AID2097, AID2223, AID489010, AID492950]; type: functional
T2 sequence (P9WHJ3 whole entry): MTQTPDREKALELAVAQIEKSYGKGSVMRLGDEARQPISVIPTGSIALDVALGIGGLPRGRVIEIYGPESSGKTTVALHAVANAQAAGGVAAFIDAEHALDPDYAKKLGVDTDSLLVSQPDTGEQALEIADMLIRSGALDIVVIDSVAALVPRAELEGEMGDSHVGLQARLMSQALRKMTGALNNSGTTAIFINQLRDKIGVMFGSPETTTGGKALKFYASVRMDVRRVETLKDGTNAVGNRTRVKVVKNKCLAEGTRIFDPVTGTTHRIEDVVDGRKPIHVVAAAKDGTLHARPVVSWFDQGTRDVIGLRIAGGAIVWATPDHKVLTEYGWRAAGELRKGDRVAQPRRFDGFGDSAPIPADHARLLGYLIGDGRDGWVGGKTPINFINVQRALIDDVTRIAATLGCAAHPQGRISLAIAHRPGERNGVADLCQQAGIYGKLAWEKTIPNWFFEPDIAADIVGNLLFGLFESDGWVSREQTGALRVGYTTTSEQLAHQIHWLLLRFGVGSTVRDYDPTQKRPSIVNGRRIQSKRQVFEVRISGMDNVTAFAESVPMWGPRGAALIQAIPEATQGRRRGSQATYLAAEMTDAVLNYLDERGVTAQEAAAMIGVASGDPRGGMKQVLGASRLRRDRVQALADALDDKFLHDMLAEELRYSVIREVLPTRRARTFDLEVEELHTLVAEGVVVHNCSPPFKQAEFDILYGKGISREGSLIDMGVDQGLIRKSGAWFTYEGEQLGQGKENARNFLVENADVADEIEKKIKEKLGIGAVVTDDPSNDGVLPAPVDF

[21] = control 3'UTR Renilla luciferase suppression, dose response, counter-screen for Shn3 inhibitor project, cell-based, Clone20-Shn3RL, cherry-picked (AID 624133); type: functional
cells [22] = type: functional
[23] = THP-1 cell cytotoxicity, dose response, cytotoxicity control for non-replicating M. tuberculosis project (AID 489025); type: functional
[24] = molecular target: T3, Oxysterols receptor LXR-beta (Homo sapiens, UniProt P55055); type: functional, cell-based;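 further: agonist activity at LXR measured by a cell-based luminescence readout across a dose range, run as a counterscreen for daf-12 agonists; HEK293 cells with Gal4-LXR fusion and GAL4-driven luciferase reporter; potency for activation of Gal4-LXR reporter so compounds are agonists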
T3 sequence (P55055 whole entry): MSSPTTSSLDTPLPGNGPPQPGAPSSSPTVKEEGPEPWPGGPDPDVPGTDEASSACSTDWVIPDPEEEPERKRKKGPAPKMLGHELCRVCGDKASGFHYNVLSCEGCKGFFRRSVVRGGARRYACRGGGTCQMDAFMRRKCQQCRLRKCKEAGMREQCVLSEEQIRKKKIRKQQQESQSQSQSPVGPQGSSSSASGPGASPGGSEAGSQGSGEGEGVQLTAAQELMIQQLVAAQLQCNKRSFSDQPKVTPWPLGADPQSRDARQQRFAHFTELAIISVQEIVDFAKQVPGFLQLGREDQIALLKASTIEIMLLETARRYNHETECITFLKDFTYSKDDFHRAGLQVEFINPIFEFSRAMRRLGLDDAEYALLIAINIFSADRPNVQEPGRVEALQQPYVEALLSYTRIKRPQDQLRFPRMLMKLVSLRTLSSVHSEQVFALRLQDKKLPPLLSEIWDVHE

cells [25] = test: cells
[26] = molecular target: Metabotropic glutamate receptor 3 (Rattus norvegicus, UniProt P31422); test: mGlu3 negative allosteric modulator potency, dose response, HEK/GIRK cells, thallium flux, rat (AID 651839); type: functional
[27] = HEK293 cell cytotoxicity, dose response, cytotoxicity control, ATP luminescence, dry powder, Set6 (AID 743142); type: functional, cell-based
[28] = A549 cell cytotoxicity, dose response, cytotoxicity control, CellTiter-Glo luminescence, dry powder, set 3 (AID 743146); type: functional, cell-based
[29] = M. tuberculosis growth inhibition, HTS (AID 449762); type: functional
NS3 = NS3 (Hepatitis C virus, UniProt A3EZJ3); test: HCV NS3 helicase inhibitor potency, dose response, biochemical, fluorescence polarization, ChemBridge library (AID 743264)
Cytochrome P450 2C9 = Cytochrome P450 2C9 (Homo sapiens, UniProt P11712)
[30] = HeLa cell cytotoxicity, dose response, cytotoxicity control, 24 h, plate reader, dry powder (AID 686928); type: functional, cell-based
HEK293 = test: HEK293T cell cytotoxicity, dose response, cytotoxicity control, ATP luminescence, cherry-pick samples (AID 687005); type: functional, cell-based; details: Homo sapiens;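 further: cells exposed to compound for 48 hours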
[31] = HEK293 Cytotoxicity Assay Measured in Cell-Based System Using Plate Reader - 7071-01_Inhibitor_Dose_CherryPick_Activity_Set2.; type: functional

Sequence of Metabotropic glutamate receptor 3 (P31422 whole entry): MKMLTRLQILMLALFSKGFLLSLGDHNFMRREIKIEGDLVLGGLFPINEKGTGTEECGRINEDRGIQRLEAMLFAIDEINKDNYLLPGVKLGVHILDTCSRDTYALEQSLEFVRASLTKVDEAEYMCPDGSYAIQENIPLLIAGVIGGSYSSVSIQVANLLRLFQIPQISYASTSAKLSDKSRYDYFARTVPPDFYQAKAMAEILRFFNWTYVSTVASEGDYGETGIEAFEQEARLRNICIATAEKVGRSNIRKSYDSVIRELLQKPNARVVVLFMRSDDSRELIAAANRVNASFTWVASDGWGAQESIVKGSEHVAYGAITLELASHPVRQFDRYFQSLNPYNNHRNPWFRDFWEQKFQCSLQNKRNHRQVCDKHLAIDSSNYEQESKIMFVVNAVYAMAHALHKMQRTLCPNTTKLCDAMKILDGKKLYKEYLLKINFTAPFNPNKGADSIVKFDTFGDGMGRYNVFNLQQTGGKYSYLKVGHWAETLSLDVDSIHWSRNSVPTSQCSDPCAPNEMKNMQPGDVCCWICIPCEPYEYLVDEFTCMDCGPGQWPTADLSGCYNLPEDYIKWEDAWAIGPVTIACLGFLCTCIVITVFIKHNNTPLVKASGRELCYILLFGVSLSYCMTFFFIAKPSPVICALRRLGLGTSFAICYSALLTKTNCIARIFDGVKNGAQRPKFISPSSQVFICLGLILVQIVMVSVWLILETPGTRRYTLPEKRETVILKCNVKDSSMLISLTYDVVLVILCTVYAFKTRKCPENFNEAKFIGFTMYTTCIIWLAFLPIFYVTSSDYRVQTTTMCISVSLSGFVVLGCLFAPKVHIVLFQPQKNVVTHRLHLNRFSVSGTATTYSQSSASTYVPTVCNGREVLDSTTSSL
Sequence of Potassium channel subfamily K member 3 (O14649 whole entry): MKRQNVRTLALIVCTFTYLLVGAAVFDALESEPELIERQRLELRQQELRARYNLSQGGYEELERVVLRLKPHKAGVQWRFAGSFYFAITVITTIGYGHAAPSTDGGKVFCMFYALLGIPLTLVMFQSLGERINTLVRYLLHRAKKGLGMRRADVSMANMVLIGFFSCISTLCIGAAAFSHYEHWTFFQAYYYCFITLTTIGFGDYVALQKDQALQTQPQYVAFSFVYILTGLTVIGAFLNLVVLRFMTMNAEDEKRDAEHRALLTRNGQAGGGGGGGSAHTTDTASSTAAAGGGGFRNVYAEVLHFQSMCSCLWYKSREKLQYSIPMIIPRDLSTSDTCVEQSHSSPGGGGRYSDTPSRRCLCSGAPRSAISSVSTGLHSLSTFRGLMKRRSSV
Sequence of Cytochrome P450 3A4 (P08684 whole entry): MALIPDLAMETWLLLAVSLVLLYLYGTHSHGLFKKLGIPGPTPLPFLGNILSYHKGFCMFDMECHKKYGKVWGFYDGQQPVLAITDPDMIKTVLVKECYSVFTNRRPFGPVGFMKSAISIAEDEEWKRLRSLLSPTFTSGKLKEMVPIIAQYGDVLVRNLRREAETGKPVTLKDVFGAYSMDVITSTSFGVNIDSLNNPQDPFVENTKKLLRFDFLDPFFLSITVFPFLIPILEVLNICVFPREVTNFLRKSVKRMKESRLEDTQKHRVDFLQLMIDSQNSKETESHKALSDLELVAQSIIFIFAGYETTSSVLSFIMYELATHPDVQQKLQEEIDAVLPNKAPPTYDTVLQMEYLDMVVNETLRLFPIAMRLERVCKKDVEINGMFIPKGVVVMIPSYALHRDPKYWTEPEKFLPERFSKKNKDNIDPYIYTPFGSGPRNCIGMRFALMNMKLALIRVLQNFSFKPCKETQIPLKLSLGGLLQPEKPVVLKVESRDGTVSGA
Sequence of NS3 (A3EZJ3 whole entry): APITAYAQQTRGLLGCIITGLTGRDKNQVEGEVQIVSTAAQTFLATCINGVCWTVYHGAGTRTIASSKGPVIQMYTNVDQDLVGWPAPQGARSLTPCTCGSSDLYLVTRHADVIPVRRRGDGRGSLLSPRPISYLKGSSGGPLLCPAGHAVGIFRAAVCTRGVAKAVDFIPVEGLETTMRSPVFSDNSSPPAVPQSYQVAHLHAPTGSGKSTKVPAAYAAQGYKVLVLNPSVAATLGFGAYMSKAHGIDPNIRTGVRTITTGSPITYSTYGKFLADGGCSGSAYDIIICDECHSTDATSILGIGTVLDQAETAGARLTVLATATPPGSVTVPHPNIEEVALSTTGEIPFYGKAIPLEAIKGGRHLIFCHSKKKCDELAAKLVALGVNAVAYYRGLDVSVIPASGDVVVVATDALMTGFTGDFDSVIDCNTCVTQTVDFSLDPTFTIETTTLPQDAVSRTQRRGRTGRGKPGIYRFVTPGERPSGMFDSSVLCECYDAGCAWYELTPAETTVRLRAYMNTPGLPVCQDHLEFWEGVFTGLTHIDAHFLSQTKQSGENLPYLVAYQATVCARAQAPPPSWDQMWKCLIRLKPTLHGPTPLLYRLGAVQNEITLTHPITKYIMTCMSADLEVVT
Sequence of Cytochrome P450 2C9 (P11712 whole entry): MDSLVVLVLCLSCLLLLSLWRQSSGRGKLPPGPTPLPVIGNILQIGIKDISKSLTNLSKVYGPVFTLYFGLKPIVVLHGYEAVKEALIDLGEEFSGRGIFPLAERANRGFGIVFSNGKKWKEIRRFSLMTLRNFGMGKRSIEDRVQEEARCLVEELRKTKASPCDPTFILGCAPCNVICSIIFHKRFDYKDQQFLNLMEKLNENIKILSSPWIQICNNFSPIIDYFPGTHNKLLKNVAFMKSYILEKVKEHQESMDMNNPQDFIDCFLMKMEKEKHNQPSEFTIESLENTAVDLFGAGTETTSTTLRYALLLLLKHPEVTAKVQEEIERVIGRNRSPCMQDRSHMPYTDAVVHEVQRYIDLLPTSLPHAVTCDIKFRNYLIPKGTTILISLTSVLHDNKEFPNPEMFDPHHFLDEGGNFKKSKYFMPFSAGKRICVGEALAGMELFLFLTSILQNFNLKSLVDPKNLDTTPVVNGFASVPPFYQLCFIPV

## CCOc1ccccc1NC(=O)c1cccc(C(=O)NC2CCCC2)c1
[1]
  IC50: 0.342 µM (active)

## COc1ccc(NC2=C(N3CCN(C(C)C)CC3)C(=O)c3ccccc3C2=O)cc1
[2]
  AC50: 16.6 µM (active)
[3]
  AC50: 45 µM (active)
[4]
  AC50: 3.28 µM (active)

## CCOC(=O)c1cc2c(C)n(-c3ccc(C)cc3)c(C)c2ccc1=O
[5]
  AC50: 3.93 µM (active)
H4
  EC50: < 0.1 µM (active)
[6]
  EC50: < 0.1 µM (active)
Cytochrome P450 3A4
  AC50: inconclusive
[7]
  AC50: 7.08 µM (active)
[8]
  EC50: 0.1 µM (active)
[9]
  EC50: 0.376 µM (active)
[10]
  EC50: 0.262 µM (active)
[11]
  AC50: 1.46 µM (active)
[12]
  EC50: 0.333 µM (active)

## COc1ccc(-c2cc(C(F)(F)F)nc(S(C)(=O)=O)n2)cc1
[13]
  IC50: 5.47 µM (active)
[14]
  AC50: 48.6 µM (active)
[15]
  AC50: 5.99 µM (active)
[16]
  AC50: 45.9 µM (active)
[17]
  AC50: 3.81 µM (active)
[18]
  AC50: 5.05 µM (active)
[19]
  AC50: 4.46 µM (active)
[20]
  AC50: 15.3 µM (active)
Protein RecA
  EC50: 4.88 µM (active)
[21]
  AC50: 26.3 µM (active)
Cells [22]
  IC50: 10.9 µM (active)
[23]
  CC50: 26 µM (active)

## Cc1ccc(N/C=C(/C#N)c2ccsc2)cc1C
[24]
  EC50: > 67.5 µM (inactive)

## COc1cc(C(=O)NCCCNc2nc3c(C)cc(C)cc3cc2C#N)cc(OC)c1OC
Cells [25]
  AC50: 4.79 µM (active)

## COc1ccc(-c2ccc3cc(C(=O)N4CCCC(CO)C4)ccc3c2)cn1 (configuration not stated)
[26]
  IC50: 6.77 µM (active)

## O=C(CCNC(=O)c1ccc(C(F)(F)F)cc1)N[C@@H]1CCCc2ccccc21
[27]
  AC50: 7.54 µM (active)
[28]
  AC50: 26 µM (active)

## O=C(O)Cc1c[nH]c2ccc(O)cc12
[29]
  IC50: > 100 µM (active)
NS3
  IC50: 69.3 µM (active)
Cytochrome P450 2C9
  AC50: inconclusive

## O=C(Nc1nnc(C2CCCC2)o1)C1CCCCC1
[30]
  AC50: 165 µM (active)

## COc1ccccc1-c1ccc([C@H]2[C@H](C#N)N(C(=O)C3CC3)[C@H]2CO)cc1
HEK293
  AC50: 24.8 µM (active)
[31]
  AC50: 24.8 µM (active)
